Results as given in the supplement of paper PMC11208160.

Assay: recombinant UMI read abundance after kanamycin selection (control-corrected) (log10(CPM+1)); higher = more efficient recombination; extreme values may be limits of the assay; sequences stand for … in AGTGCAGAGAAAATCGGCCAGTTTTCTCTGCCTGCAGTCCGCATGCCGTGGGACCCCTTGGGTTCTAACCTGTTGCCTAGATTTATGCAGCGGACTGCCTTTCTCCCAAAGTGATAAACCGG…AGGTTGGTTTCACT; site = the 11-nt donor
Outline: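 In a pooled Escherichia coli screen for the IS621 bridge recombinase, donor and donor-binding-loop pairs were each placed with a 12-nt UMI on a plasmid bearing a promoterless kanamycin gene. This library was co-electroporated with a target plasmid encoding a fixed target and T7-inducible recombinase, and cells were plated either on IPTG (0.07 mM) plus kanamycin or without selection, in two replicates each. Recombinant UMIs were PCR-amplified across the donor–target junction and sequenced, and counts were converted to CPM, averaged over replicates, scaled by control-derived factors and reported as log10(CPM+1).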
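Note: IS621 bridge recombinase in Escherichia coli cells against a fixed T5 target plasmid.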

Sequence	recombinant UMI read abundance (log10)
CTAGTATCATGGACCGGTTTTCCCGGTAATCCGTATTTGAC (site GTAGTATCTGT)	0
ATTGACCCATGGACCGGTTTTCCCGGTAATCCGTATTTGGA (site ATTGACCCTTC)	0.0199
ACACGAACATGGACCGGTTTTCCCGGTAATCCGTATTTGCC (site ACACGAACTGC)	0
TACTTGGCATGGACCGGTTTTCCCGGTAATCCGTATTTGTG (site TACTTGGCTCA)	0.305
CGTGGAACATGGACCGGTTTTCCCGGTAATCCGTATTTGTT (site CGTAGAACTAA)	1.15
GTTCCTTCATGGACCGGTTTTCCCGGTAATCCGTATTTGAC (site GTTCCTTCTGT)	0.671
CTTAGCTCATGGACCGGTTTTCCCGGTAATCCGTATTTGCT (site CTTAGCTCTAG)	0
TATGGGTCATGGACCGGTTTTCCCGGTAATCCGTATTTGCT (site TATGGGTCTAG)	2.88
CGATCGACATGGACCGGTTTTCCCGGTAATCCGTATTTGCT (site CGATCGACTAG)	2.63
GAGGAGGCATGGACCGGTTTTCCCGGTAATCCGTATTTGTG (site GTGGAGGCTCA)	0.26
TGTTATACATGGACCGGTTTTCCCGGTAATCCGTATTTGCA (site TGTTATACTTG)	1.64
TGAGCTACATGGACCGGTTTTCCCGGTAATCCGTATTTGTC (site GCGAACTCTCC)	0
GACAAACCATGGACCGGTTTTCCCGGTAATCCGTATTTGCT (site GACAAACCTAA)	0.00711
TCAGTATCATGGACCGGTTTTCCCGGTAATCCGTATTTGCA (site TCAGTATCTTG)	2.23
CCAGGTCCATGGACCGGTTTTCCCGGTAATCCGTATTTGAT (site CCAGGTTCTAT)	0
GGTTGGACATGGACCGGTTTTCCCGGTAATCCGTATTTGAC (site GTTTGGACTGT)	0
AGTAGGTCATGGACCGGTTTTCCCGGTAATCCGTATTTGAA (site AGTAGGTCTTT)	1.07
AAGGAATCATGGACCGGTTTTCCCGGTAATCCGTATTTGCG (site CAGGAATCTCG)	2.38
CGGGGAACATGGACCGGTTTTCCCGGTAATCCGTATTTGTT (site CGTGGAACTAA)	0.548

Sequence	recombinant UMI read abundance (log10)
CACTTGGCATGGACCGGTTTTCCCGGTAATCCGTATTTGTA (site CACTTGGCTTA)	1.46
TCAGAGACATGGACCGGTTTTCCCGGTAATCCGTATTTGCG (site TCAGAGACTCC)	0.0212
GGTCGCTCATGGACCGGTTTTCCCGGTAATCCGTATTTGCT (site GGTCGCTCTAG)	0.782
TATAGTCCATGGACCGGTTTTCCCGGTAATCCGTATTTGTA (site TAGAGTCCTTA)	0.0216
TCGATGTCATGGACCGGTTTTCCCGGTAATCCGTATTTGTG (site TCGATGTCTCA)	0.868
AAGCACGCATGGACCGGTTTTCCCGGTAATCCGTATTTGGC (site AAGCACGCTTC)	0.476
TCGCAAACATGGACCGGTTTTCCCGGTAATCCGTATTTGCC (site TCGCAAACTGG)	0
CAATTCCCATGGACCGGTTTTCCCGGTAATCCGTATTTGCT (site CAATTCCCTGG)	0
GGGGCGCCATGGACCGGTTTTCCCGGTAATCCGTATTTGCA (site GGGGCCCCTTG)	0
GAGCTCACATGGACCGGTTTTCCCGGTAATCCGTATTTGAT (site CAGCTCACTAT)	0.963
TGTTCCACATGGACCGGTTTTCCCGGTAATCCGTATTTGTA (site TGTTCCACTTA)	0.225
CTAGTATCATGGACCGGTTTTCCCGGTAATCCGTATTTGAC (site CCAGTTTCTGT)	0
ATACAAGCATGGACCGGTTTTCCCGGTAATCCGTATTTGAG (site ATGCAAGCTCT)	0.923
GGTACTTCATGGACCGGTTTTCCCGGTAATCCGTATTTGTT (site GGTACGTCTAA)	0.011
CGCCTATCATGGACCGGTTTTCCCGGTAATCCGTATTTGGC (site CGCCTATCTGC)	1.93
TGTACAACATGGACCGGTTTTCCCGGTAATCCGTATTTGAG (site TGTACAACTCT)	0.0145
CGGCAGTCATGGACCGGTTTTCCCGGTAATCCGTATTTGCC (site CGGTAGTCTGG)	0
CTGGAAACATGGACCGGTTTTCCCGGTAATCCGTATTTGCA (site CTGGTAACTTG)	0.00624
ACTACACCATGGACCGGTTTTCCCGGTAATCCGTATTTGCC (site ACTACACCTGG)	0
